# Tests used:
# Format in all cases: ADME
# [1] = biological target: T1, ATP-binding cassette sub-family C member 4 (Homo sapiens, UniProt O15439); assay: Inhibitors of transporters of clinical importance in the absorption and disposition of drugs, MRP4
# T1 sequence (O15439 whole entry): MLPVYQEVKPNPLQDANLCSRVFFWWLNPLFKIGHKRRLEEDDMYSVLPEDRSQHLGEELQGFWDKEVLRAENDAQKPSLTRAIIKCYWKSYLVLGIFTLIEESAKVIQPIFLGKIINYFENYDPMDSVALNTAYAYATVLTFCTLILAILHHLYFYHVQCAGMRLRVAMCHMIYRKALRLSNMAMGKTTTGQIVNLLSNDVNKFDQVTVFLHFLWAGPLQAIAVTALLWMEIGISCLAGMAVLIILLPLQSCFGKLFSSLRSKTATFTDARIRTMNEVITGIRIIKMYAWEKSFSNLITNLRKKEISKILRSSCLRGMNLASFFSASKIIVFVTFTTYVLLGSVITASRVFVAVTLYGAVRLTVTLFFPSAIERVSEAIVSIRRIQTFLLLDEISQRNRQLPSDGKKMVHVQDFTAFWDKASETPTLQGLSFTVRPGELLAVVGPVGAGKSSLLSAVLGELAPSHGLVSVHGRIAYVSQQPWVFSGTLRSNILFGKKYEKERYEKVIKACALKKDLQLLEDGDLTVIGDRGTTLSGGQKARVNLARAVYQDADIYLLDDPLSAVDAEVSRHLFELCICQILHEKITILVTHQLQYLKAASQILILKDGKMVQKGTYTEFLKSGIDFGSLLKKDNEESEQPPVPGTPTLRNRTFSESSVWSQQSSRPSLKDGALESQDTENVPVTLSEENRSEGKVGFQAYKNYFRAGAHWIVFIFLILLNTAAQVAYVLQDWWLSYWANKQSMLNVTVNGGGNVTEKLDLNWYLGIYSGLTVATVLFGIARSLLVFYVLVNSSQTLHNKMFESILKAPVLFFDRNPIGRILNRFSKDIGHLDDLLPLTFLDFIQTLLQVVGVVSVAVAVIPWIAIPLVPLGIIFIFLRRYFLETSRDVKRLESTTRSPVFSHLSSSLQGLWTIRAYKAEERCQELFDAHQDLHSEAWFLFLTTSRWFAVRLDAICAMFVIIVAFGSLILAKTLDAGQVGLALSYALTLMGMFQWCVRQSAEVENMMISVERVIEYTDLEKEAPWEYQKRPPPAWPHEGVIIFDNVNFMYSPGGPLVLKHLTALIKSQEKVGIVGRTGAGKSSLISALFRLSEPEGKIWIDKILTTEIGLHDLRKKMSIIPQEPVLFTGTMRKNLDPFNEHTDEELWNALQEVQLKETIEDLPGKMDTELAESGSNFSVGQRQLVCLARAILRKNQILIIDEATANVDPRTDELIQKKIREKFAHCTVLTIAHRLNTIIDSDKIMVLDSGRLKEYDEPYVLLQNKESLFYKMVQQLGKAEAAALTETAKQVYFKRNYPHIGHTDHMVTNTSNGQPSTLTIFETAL
# [2] = biological target: T2, Organic anion transporter 3 (Homo sapiens, UniProt Q8TCC7); assay: Inhibitors of transporters of clinical importance in the absorption and disposition of drugs, OAT3
# T2 sequence (Q8TCC7 whole entry): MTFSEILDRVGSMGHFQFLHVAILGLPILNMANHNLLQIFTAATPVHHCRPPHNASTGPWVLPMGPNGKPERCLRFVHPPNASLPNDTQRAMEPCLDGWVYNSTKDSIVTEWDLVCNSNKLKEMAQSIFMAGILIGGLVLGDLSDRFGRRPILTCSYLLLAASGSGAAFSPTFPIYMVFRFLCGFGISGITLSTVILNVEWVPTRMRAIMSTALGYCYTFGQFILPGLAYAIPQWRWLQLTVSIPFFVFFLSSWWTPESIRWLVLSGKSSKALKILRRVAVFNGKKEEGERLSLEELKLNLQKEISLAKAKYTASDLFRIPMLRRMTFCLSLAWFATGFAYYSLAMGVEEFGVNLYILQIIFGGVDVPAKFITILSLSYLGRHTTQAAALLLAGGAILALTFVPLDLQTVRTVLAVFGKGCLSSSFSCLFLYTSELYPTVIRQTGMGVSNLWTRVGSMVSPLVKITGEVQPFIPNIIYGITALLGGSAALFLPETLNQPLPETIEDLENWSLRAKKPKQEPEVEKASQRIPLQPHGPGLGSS
# [3] = biological target: ATP-binding cassette sub-family C member 3 (Homo sapiens, UniProt O15438); assay: Inhibitors of transporters of clinical importance in the absorption and disposition of drugs, MPR3
# [4] = biological target: ATP-binding cassette sub-family C member 2 (Homo sapiens, UniProt Q92887); assay: Inhibitors of transporters of clinical importance in the absorption and disposition of drugs, MRP2
# [5] = biological target: T3, Solute carrier family 15 member 2 (Homo sapiens, UniProt Q16348); assay: Inhibitors of transporters of clinical importance in the absorption and disposition of drugs, PEPT2
# T3 sequence (Q16348 whole entry): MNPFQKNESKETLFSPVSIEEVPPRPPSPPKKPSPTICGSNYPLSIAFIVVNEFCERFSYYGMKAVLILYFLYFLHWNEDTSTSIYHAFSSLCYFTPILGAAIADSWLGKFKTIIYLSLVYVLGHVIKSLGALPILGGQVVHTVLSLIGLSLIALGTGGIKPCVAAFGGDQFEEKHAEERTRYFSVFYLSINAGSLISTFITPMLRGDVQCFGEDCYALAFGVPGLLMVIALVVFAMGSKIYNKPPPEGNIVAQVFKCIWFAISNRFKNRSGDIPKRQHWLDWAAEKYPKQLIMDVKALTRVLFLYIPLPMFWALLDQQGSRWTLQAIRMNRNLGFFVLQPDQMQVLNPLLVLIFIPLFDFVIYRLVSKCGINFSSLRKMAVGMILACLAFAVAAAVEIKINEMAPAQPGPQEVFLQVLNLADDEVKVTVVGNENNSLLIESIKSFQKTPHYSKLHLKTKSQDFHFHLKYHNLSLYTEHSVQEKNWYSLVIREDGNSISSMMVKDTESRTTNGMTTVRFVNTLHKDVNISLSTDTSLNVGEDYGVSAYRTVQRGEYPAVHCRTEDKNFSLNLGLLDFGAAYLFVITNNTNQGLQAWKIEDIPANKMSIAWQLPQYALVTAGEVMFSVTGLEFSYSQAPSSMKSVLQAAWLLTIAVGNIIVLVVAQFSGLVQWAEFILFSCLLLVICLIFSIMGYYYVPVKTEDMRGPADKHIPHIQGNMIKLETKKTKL
# [6] = biological target: T4, Solute carrier organic anion transporter family member 1B3 (Homo sapiens, UniProt Q9NPD5); assay: Inhibitors of transporters of clinical importance in the absorption and disposition of drugs, OATP1B3
# T4 sequence (Q9NPD5 whole entry): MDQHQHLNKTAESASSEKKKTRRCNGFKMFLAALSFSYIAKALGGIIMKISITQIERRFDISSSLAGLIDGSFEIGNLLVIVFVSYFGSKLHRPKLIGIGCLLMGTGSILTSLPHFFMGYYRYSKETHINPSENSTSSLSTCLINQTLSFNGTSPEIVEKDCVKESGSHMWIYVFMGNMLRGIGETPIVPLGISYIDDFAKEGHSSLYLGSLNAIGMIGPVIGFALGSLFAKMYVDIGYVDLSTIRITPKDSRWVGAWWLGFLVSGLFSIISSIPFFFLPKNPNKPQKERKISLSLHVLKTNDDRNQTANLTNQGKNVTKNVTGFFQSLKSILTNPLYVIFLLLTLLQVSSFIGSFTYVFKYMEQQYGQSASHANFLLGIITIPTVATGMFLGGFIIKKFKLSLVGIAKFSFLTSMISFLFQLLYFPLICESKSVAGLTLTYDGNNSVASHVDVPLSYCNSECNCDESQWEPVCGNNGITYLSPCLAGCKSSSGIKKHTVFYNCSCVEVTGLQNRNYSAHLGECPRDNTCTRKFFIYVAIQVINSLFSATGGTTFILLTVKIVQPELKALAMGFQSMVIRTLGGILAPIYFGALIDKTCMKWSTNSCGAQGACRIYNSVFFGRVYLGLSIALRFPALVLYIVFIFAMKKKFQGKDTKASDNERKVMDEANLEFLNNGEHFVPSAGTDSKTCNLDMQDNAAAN
# [7] = biological target: T5, Solute carrier organic anion transporter family member 1B1 (Homo sapiens, UniProt Q9Y6L6); assay: Inhibitors of transporters of clinical importance in the absorption and disposition of drugs, OATP1B1
# T5 sequence (Q9Y6L6 whole entry): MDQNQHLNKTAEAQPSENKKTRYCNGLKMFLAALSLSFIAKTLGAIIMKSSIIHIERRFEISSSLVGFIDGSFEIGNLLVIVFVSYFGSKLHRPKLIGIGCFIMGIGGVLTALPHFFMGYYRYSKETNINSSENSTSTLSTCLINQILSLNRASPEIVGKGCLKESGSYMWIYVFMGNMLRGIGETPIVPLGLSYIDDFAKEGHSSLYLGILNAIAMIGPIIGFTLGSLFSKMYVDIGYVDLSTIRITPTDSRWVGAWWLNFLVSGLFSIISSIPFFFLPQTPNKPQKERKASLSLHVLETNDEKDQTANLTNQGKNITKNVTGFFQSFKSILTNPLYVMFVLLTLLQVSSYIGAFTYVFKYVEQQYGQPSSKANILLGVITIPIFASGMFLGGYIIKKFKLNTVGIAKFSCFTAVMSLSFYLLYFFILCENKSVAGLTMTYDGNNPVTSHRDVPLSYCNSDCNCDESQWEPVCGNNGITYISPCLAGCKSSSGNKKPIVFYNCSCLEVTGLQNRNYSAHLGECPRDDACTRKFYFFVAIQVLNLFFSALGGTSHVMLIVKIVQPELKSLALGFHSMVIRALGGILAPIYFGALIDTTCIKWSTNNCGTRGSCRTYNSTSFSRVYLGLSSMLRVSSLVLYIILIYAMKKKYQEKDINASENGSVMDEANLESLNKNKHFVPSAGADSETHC
# [8] = biological target: T6, Solute carrier organic anion transporter family member 1A2 (Homo sapiens, UniProt P46721); assay: Inhibitors of transporters of clinical importance in the absorption and disposition of drugs, OATP1A2
# T6 sequence (P46721 whole entry): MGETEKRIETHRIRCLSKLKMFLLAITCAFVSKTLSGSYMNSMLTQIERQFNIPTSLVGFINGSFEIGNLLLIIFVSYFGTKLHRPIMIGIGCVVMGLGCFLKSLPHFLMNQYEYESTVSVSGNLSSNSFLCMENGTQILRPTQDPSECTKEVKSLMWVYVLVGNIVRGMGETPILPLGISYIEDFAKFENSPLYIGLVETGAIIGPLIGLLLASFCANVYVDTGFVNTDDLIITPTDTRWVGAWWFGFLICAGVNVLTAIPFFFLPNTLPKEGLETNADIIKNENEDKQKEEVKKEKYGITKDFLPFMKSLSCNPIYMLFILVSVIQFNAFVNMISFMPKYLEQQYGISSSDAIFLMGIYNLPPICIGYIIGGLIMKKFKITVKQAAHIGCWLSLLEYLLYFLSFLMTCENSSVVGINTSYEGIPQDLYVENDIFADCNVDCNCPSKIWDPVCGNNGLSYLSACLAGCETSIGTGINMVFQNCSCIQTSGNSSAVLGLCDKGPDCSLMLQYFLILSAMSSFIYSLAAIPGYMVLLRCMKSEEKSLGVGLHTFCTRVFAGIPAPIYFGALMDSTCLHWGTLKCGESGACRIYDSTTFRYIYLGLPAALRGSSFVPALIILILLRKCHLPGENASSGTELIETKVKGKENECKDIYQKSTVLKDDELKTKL
# [9] = biological target: T7, Solute carrier family 22 member 6 (Homo sapiens, UniProt Q4U2R8); assay: Inhibitors of transporters of clinical importance in the absorption and disposition of drugs, OAT1
# T7 sequence (Q4U2R8 whole entry): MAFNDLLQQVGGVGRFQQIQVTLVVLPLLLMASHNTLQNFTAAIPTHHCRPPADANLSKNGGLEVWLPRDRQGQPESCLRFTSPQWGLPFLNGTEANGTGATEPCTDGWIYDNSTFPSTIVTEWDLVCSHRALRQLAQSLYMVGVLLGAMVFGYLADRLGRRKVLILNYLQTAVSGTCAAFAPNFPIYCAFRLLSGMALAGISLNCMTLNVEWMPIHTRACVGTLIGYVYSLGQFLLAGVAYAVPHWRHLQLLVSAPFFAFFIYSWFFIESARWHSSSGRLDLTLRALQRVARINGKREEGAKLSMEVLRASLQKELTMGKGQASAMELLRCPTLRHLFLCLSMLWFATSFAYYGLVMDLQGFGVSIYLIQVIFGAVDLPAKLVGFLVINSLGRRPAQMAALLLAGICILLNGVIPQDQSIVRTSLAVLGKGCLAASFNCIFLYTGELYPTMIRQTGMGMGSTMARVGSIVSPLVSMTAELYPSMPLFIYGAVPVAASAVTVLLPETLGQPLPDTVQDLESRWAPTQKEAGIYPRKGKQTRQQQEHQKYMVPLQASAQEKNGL
# Chain of ATP-binding cassette sub-family C member 2 (Q92887 whole entry): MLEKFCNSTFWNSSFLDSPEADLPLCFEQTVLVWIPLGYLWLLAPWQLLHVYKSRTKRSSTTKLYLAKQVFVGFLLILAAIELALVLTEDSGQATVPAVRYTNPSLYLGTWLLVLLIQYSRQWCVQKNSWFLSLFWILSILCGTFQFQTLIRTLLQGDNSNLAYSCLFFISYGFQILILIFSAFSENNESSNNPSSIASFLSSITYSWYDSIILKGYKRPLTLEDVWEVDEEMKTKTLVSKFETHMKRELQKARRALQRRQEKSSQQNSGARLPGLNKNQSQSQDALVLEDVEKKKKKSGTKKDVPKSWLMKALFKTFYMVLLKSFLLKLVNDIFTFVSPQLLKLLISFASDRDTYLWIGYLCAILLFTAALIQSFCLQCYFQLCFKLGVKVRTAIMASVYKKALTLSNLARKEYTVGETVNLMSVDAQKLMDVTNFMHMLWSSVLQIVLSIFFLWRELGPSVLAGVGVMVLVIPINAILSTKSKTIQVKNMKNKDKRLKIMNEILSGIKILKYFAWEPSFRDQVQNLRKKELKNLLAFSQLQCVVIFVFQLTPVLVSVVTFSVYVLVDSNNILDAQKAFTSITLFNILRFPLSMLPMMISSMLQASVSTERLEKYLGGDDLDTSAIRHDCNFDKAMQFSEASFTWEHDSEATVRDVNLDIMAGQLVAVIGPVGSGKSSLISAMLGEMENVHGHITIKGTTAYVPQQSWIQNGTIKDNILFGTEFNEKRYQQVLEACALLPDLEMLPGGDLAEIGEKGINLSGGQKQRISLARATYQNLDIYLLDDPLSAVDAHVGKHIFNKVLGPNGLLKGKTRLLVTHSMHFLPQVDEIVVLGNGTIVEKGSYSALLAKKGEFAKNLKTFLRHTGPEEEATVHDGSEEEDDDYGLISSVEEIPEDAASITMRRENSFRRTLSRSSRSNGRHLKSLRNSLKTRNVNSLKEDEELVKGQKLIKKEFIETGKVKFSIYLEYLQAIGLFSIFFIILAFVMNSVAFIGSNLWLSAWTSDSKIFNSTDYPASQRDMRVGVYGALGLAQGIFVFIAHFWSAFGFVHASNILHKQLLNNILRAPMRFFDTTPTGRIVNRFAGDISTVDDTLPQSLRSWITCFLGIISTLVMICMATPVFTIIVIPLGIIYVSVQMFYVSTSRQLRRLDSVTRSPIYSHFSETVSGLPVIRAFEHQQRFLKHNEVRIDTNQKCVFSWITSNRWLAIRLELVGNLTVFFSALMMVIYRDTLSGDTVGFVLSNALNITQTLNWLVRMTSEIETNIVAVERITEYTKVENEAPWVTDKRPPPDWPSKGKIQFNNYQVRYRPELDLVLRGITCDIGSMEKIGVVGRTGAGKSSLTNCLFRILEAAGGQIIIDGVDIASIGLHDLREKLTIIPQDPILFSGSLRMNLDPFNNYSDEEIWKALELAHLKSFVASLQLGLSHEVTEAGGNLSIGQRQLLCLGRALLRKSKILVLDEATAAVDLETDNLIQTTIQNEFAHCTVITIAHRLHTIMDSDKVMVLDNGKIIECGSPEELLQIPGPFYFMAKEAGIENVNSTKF
# Chain of ATP-binding cassette sub-family C member 3 (O15438 whole entry): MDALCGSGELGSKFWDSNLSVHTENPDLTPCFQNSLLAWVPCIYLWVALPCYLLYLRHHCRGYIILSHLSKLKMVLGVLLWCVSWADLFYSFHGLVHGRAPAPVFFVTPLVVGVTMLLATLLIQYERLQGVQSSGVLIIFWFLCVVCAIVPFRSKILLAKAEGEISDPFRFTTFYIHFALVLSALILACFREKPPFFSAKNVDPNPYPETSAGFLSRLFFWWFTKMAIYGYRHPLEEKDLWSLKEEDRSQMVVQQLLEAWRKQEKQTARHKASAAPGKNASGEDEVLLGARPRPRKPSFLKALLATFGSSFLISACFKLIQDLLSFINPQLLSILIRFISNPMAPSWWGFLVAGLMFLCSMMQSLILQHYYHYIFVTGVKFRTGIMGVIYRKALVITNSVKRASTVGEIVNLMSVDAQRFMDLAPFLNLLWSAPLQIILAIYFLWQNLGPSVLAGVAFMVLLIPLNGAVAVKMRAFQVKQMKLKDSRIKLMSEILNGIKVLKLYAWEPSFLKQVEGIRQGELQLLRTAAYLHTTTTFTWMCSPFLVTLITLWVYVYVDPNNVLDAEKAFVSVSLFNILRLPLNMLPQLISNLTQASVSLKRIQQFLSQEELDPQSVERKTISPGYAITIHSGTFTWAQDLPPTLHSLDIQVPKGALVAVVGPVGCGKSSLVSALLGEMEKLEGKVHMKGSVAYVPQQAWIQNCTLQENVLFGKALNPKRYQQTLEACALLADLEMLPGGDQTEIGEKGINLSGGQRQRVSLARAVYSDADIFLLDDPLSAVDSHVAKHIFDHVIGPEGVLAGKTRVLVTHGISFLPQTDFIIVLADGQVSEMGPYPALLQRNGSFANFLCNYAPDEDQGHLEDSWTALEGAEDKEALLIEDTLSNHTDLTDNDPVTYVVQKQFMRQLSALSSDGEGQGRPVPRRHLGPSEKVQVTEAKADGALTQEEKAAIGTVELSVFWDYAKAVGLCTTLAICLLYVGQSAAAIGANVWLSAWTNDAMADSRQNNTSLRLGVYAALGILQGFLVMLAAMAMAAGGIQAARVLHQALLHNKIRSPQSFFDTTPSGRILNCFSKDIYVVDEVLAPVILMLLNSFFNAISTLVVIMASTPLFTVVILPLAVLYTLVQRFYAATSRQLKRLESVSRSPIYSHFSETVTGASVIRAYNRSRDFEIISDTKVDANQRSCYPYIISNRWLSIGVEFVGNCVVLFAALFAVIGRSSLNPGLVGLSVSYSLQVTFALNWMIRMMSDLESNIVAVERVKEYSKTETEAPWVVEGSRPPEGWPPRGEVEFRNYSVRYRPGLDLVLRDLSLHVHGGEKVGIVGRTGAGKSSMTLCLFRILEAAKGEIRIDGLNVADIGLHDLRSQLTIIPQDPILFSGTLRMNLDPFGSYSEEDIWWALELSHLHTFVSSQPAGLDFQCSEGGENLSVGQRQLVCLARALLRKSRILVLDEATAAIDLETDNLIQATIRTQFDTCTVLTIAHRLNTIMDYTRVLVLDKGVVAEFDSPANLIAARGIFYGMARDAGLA
smiles,measurement,setting,value
O=C(O)Cc1ccccc1Nc1c(Cl)cccc1Cl [DICLOFENAC],Activity,[1],transporter inhibitor
CCCN(CCC)S(=O)(=O)c1ccc(C(=O)O)cc1 [PROBENECID],Activity,[2],transporter inhibitor
Cc1ccc(-c2cc(C(F)(F)F)nn2-c2ccc(S(N)(=O)=O)cc2)cc1 [CELECOXIB],Activity,[1],transporter inhibitor
Nc1nc(=O)n([C@@H]2CS[C@H](CO)O2)cc1F [EMTRICITABINE],Activity,[3],transporter inhibitor
same,Activity,[4],transporter inhibitor
C[C@H](CSC(=O)c1ccccc1)C(=O)N1C[C@@H](Sc2ccccc2)C[C@H]1C(=O)O [ZOFENOPRIL],Activity,[5],transporter inhibitor
Cc1cccc(C)c1OCC(=O)N[C@@H](Cc1ccccc1)[C@@H](O)C[C@H](Cc1ccccc1)NC(=O)[C@H](C(C)C)N1CCCNC1=O [LOPINAVIR],Activity,[6],transporter inhibitor
same,Activity,[7],transporter inhibitor
same,Activity,[8],transporter inhibitor
CCC(=O)O[C@@H](O[P@](=O)(CCCCc1ccccc1)CC(=O)N1C[C@H](C2CCCCC2)C[C@H]1C(=O)O)C(C)C [FOSINOPRIL],Activity,[5],transporter inhibitor
CO[C@@H]1[C@@H](OC(N)=O)[C@@H](O)[C@H](Oc2ccc3c(O)c(NC(=O)c4ccc(O)c(CC=C(C)C)c4)c(=O)oc3c2C)OC1(C)C [NOVOBIOCIN],Activity,[9],transporter inhibitor
same,Activity,[2],transporter inhibitor
